The conditions of this data set: 101.33 kPa, Liquid, Vibrating tube method.

SMILES strings stand for the structures. Numbers after ± are expanded uncertainties.

As a reminder, the mass density is the mass of a sample divided by its volume. As for `ClC(Cl)C(Cl)Cl` [1,1,2,2-tetrachloroethane], the mass density (288.15 K) is 1601.45 ± 2.3 kg/m3; the mass density (293.15 K) worked out at 1593.65 ± 2.3 kg/m3; the mass density (298.15 K) turned out to be 1585.87 ± 2.3 kg/m3; the mass density (303.15 K) is on record as 1578.07 ± 2.3 kg/m3; the mass density (308.15 K) is on record as 1570.27 ± 2.2 kg/m3; the mass density (313.15 K) came out at 1562.45 ± 2.2 kg/m3.

`CCCCCC(C)=O` [2-heptanone]: the mass density is, setting by setting: (288.15 K) 819.786 ± 0.65 kg/m3; (293.15 K) 815.497 ± 0.64 kg/m3; (298.15 K) 811.198 ± 0.64 kg/m3; (303.15 K) 806.887 ± 0.63 kg/m3; (308.15 K) 802.562 ± 0.63 kg/m3; (313.15 K) 798.222 ± 0.63 kg/m3.

With `CCC(C)=O` [butanone], the mass density amounted to 810.262 ± 0.24 kg/m3 (288.15 K); 805.058 ± 0.24 kg/m3 (293.15 K); 799.828 ± 0.24 kg/m3 (298.15 K); 794.565 ± 0.24 kg/m3 (303.15 K); 789.273 ± 0.24 kg/m3 (308.15 K); 783.946 ± 0.24 kg/m3 (313.15 K).

As to `O=C1CCCCC1` [cyclohexanone], the mass density runs as follows: (288.15 K) 951.178 ± 0.23 kg/m3; (293.15 K) 946.713 ± 0.23 kg/m3; (298.15 K) 942.243 ± 0.23 kg/m3; (303.15 K) 937.767 ± 0.23 kg/m3; (308.15 K) 933.285 ± 0.23 kg/m3; (313.15 K) 928.795 ± 0.23 kg/m3.

As for `ClCCCl` [1,2-dichloroethane], the mass density is recorded as 1259.99 ± 0.45 kg/m3 (288.15 K); 1252.77 ± 0.44 kg/m3 (293.15 K); 1245.49 ± 0.44 kg/m3 (298.15 K); 1238.18 ± 0.43 kg/m3 (303.15 K); 1230.84 ± 0.42 kg/m3 (308.15 K); 1223.46 ± 0.42 kg/m3 (313.15 K).

Values taken from the NIST ThermoML archive (doi:10.1016/j.tca.2013.03.031).
